System: prostaglandin synthetase of bovine seminal vesicles
Experiment: Inhibition of conversion of arachidonic acid into PGE2 and PGF2α by BSV prostaglandin synthetase, cascade bioassay
Format: biochemical
Protocol: The high molecular weight mammalian blood plasma or serum extract of the present invention was tested for PG synthesis-inhibiting properties by determining the ability of the extract to inhibit the conversion of arachidonic acid into PGE2 and PGF2α by PG synthetase present in BSV, in the presence of optimal amounts of the cofactor glutathione, (reduced form). Specifically, the inhibitory properties of the extract were determined by a cascade bioassay technique [Collier et al., Brit. J. Pharmac., 58, 193-199 (1976)] involving measurement of prostaglandin activity against response.
The ability of the purified mammalian serum extract to inhibit the enzymatic conversion of arachidonic acid by prostaglandin synthetase obtained from BSV was determined by bioassay on tissues which are known to be contracted by naturally occurring PGs. Segments of rat or hamster stomach fundus (stomach strip) were obtained as described in Brit. J. Pharmacol. Vol. 5, 173 (1950), Vol. 6, 32 (1953), Vol. 12, 344 (1957), and Vol. 23, 351 (1964). […]
A dose of standard PGE2 is put over the tissues by means of the roller pump and the tissue response measured by recording the tissue contraction. […] Alternately, the protein content of the solution can be determined by known techniques, such as the biuret reaction or Kjeldahl method, and the test value expressed in ng. […]

haptoglobin obtained from Cohn subfraction IV4 by the above procedure: haptoglobin from Cohn subfraction IV4 by second procedure: ethacridine lactate precipitation and chromatography
Inhibition of PG synthesis (in words): demonstrated an ability to inhibit
